“And” between values parts separate entries of the source, which are not always exact repeats. Identical values can stand only once. Counter-ions that a name gives are not always drawn. Like-named read-outs stand apart in the source and are kept apart here.
Experiments:
[1] = test system: Human H460 Non-Small Cell Lung Carcinoma Tumor Xenograft Model; assay: Test D xenograft, Compound 2 free base; format: in vivo, nu/nu mice; conditions: qod × 3
Method: (§1) The anti-tumor activity of Compound 2 (free base) was evaluated against a variety of human tumor xenograft models. A summary of the studies, including tumor type, dosing and administration, growth inhibition, and major findings is presented below.

[2] = test system: NCI-H460 human non-small cell lung carcinoma xenograft; assay: Compound 2 citrate salt vs. NCI-H460 xenograft model (pemetrexed, topotecan, cisplatin controls); conditions: for mean tumor volume of the animals not at endpoint: 3 animals
[3] = test system: MDA-MB-231 human breast tumor xenograft; conditions: for animals not yet reached the study endpoint of 1500 mm^3: Day 90
[4] = test system: NCI-H460 human non-small cell lung carcinoma xenograft; assay: Compound 2 citrate salt vs. NCI-H460 xenograft model (docetaxel control)
[5] = test system: NCI-H460 human non-small cell lung carcinoma xenograft; assay: Comparison dose schedule study in the NCI-H460 xenograft model; format: in vivo, nude (nu/nu) mice
Description: Irinotecan served as the positive control.

[6] = test system: HCT-116 human colon tumor xenograft; assay: Compound 2 citrate salt vs. HCT-116 human colon tumor xenograft model (IV)
[7] = test system: HT-29 human colon tumor xenograft; assay: Compound 2 citrate salt vs. HT-29 human colon tumor model
[8] = test system: Human HCT-116 Colon Tumor Xenograft Model; assay: Test D xenograft, Compound 2 and metabolites; conditions: qod × 3 for 2 cycles
[9] = test system: human HCT-116 colon ca, HT-29 colon ca and NCI-H460 NSCLC cells; assay: 72 hour exposure concentration response in tumor cells (Example 22); format: cell-based; conditions: range over HCT-116, HT-29 and NCI-H460 cells and the three compounds
Method: The in vitro and in vivo activity of compound 2 and two of its metabolites (compound 5 and compound 6) were explored and compared with the activity of camptothecin Top1 inhibitors. […] In human HCT-116 colon ca, HT-29 colon ca and NCI-H460 NSCLC cells the concentration response for compound 2, compound 5 and compound 6 were the same. […] Compound 2 was administered intravenously on a QODx3 schedule for 2 cycles.

[10] = test system: Human LOX-IMVI Melanoma Tumor Xenograft Model; assay: Test D xenograft, Compound 2 free base; conditions: 90 mg/kg/day IP, qd × 5
[11] = test system: Human SK-MEL-3 Melanoma Tumor Xenograft Model; assay: Test D xenograft, Compound 2 free base; format: in vivo, nu/nu mice; conditions: 90 mg/kg/day IP, qd × 5
Method: as §1

[12] = test system: Human NCI-H292 Lung Tumor Xenograft Model; assay: Test D xenograft, Compound 2 free base; conditions: qod × 3
[13] = test system: Human MDA-MB-231 Breast Tumor Xenograft Model; assay: Test D xenograft, Compound 2 free base; conditions: qod × 3
[14] = test system: Human H1299 Lung Tumor Xenograft Model; assay: Test D xenograft, Compound 2 free base; conditions: qod × 3
[15] = test system: Human HCT-15 Colon Tumor Xenograft Model; assay: Test D xenograft, Compound 2 free base; format: in vivo, nu/nu mice; conditions: 60 mg/kg/day IV, q4d×3
[16] = test system: Human DLD-1 Colon Tumor Xenograft Model; assay: Test D xenograft, Compound 2 free base; format: in vivo, nu/nu mice; conditions: 60 mg/kg/day IV
[17] = test system: HCT-116 human colon tumor xenograft; assay: Compound 2 after oral administration vs. the HCT-116 xenograft model; conditions: 60 mg/kg/day IP, q4d×3
[18] = test system: Human 786-0 Renal Cell Tumor Xenograft Model; assay: Test D xenograft, Compound 2 free base; format: in vivo, nu/nu mice; conditions: 60 mg/kg/day IV, q4d×3
[19] = 2.04 mg/kg/day IP, qod×3 weekly for 2 cycles
[20] = 2.72 mg/kg/day IP, qod×3 weekly for 2 cycles
[21] = all dosages (0.68, 1.36, 2.72 mg/kg IP, qod×3 weekly for 2 cycles)
[22] = 1.36 mg/kg/day IV, qod×3 weekly for 2 cycles
[23] = 2.72 mg/kg/day IV, qod×3 weekly for 2 cycles
[24] = 4.08 mg/kg/day IP, qod×3 weekly for 2 cycles
[25] = 2.72 mg/kg/day IP, qod×3 weekly for 2 cycles, Day 53
[26] = 60 mg/kg/day IP, qod×3 weekly for 2 cycles

## N.N.[Cl][Pt][Cl] [Cisplatin]
[1]; 3.3 mg/kg/day IP
  Increase in Life Span (ILS): 1.4x
  Tumor Growth Delay T-C: 11 days
  Tumor Growth Inhibition T/C (tumor volume): 44.5%
[2]; 0.75 and 1.5 mg/kg/day IP, qd×5
  antitumor activity: only active at the high dose
[2]; high dose (1.5 mg/kg/day IP, qd×5)
  antitumor activity (TGI and TGD evaluation points): low activity at both evaluation points

## CNCCn1c(=O)c2cc(OC)c(OC)cc2c2cnc3cc4c(cc3c21)OCO4 [Compound 2 citrate salt, 8,9-dimethoxy-2,3-methylenedioxy-5-[2-(N-methylamino)ethyl]-5H-dibenzo[c,h]1,6-naphthyridin-6-one]
[3]; [19]
  TGD: 52 days
  animals not yet reached the study endpoint of 1500 mm^3: 2 of 8
[3]; [20]
  TGD: > 58 days
  animals not yet reached the study endpoint of 1500 mm^3: 4 of 8
[3]; 3.27 mg/kg/day IP, qd×5
  ILS: > 2.0 fold
  TGD (T-C): 42 days
  TGI (T/C): 9.5%
  maximum weight loss: 15.7%
  mice remaining on Day 90: one
[4]; [20]
  ILS: 2.0 fold
  TGD (T-C): 24 days
  TGI (T/C): 35.1%
[4]; [21]
  body weight loss: < 20%
  toxic deaths: no toxic deaths
[5]; 4.90 mg/kg/day IP, q4d×5, on Day 34
  maximum weight loss: 24.2%
[6]; [22]
  ILS: 1.6 fold
  TGD (T-C): 18 days
  TGI (T/C): 45.0%
[6]; [23]
  ILS: > 2.2 fold
  TGD: > 34 days
[6]; 2.72 mg/kg/day IV, qod×3 weekly for 2 cycles, Day 62
  mice survivors at conclusion of the study: 50%
[6]; 5.44 mg/kg/day IV, qod×3 weekly for 2 cycles
  weight loss: > 30%
[6]; 5.44 mg/kg/day IV, qod×3 weekly for 2 cycles, groups of 8
  toxic deaths: ⅝
[7]; [20]
  TGI (T/C): 50.1%
[7]; 2.72 mg/kg/day IP, qod×3 weekly for 2 cycles, vs untreated control
  TGD: 16 days
[7]; [24]
  ILS: 1.7 fold
  TGD (T-C): 31 days
  TGI (T/C): 18.9%
[7]; dose levels tested (1.36, 2.72, 4.08 mg/kg/day IP, qod×3 weekly for 2 cycles)
  tolerability: well tolerated
[2]; 2.59 mg/kg/day IP, qd×5
  TGI (T/C): 30.5%
[2]; [20]
  toxic deaths: no toxic deaths
[2]; [25]
  animals not yet reached the study endpoint of 2000 mm^3: 3 of 8
  weight loss recovered at study termination: approximately 12%
  mean tumor volume of the animals not at endpoint: 1583 mm^3
[2]; 2.72 mg/kg/day IP, qod×3 weekly for 2 cycles, on Day 22
  maximum weight loss: 22.3%
[2]; 3.27 mg/kg/day IP, qd×5
  TGI (T/C): 33.5%
  animals not yet reached the study endpoint of 2000 mm^3: 3 of 8
  mean tumor volume of the animals not at endpoint: 1722 mm^3

## CNCCn1c(=O)c2cc(O)c(OC)cc2c2cnc3cc4c(cc3c21)OCO4 [Compound 5]
[8]; 4 mg/kg/day IV
  Increase in Life Span (ILS): 1.8x
  Tumor Growth Delay T-C: 25 days
  Tumor Growth Inhibition T/C (tumor volume): 27.3%
[8]; 6 mg/kg/day IV
  Increase in Life Span (ILS): 1.9x
  Tumor Growth Delay T-C: 28 days
  Tumor Growth Inhibition T/C (tumor volume): 23.4%
[8]; 8 mg/kg/day IV
  Increase in Life Span (ILS): 2.0x
  Tumor Growth Delay T-C: 32 days
  Tumor Growth Inhibition T/C (tumor volume): 27.2%
[9]; read-out: IC50 concentrations
  IC50: 0.5 to 0.65 nM
[9]; read-out: IC90 concentrations
  IC90: 1.8 to 2 nM

## CN(C)/N=N/c1[nH]cnc1C(N)=O [Dacarbazine, reference compound]
[10]
  Increase in Life Span (ILS): 2.0x
  Tumor Growth Delay T-C: 28 days and 14 days
  Tumor Growth Inhibition T/C (tumor volume): 80.6%
[11]
  Increase in Life Span (ILS): 1.0x
  Tumor Growth Delay T-C: 0 days
  Tumor Growth Inhibition T/C (tumor volume): 88.5%

## CC(=O)O[C@@]12CO[C@@H]1C[C@H](O)[C@@]1(C)C(=O)[C@H](O)C3=C(C)[C@@H](OC(=O)[C@H](O)[C@@H](NC(=O)OC(C)(C)C)c4ccccc4)C[C@@](O)([C@@H](OC(=O)c4ccccc4)[C@H]21)C3(C)C [Docetaxel, reference compound]
[12]; 16 mg/kg/day IV
  Increase in Life Span (ILS): 2.1x
  Tumor Growth Delay T-C: 39 days
  Tumor Growth Inhibition T/C (tumor volume): 8.7%
[12]; 20 mg/kg/day IV
  Increase in Life Span (ILS): 2.1x
  Tumor Growth Delay T-C: 39 days
  Tumor Growth Inhibition T/C (tumor volume): 6.0%
[4]; 20 mg/kg/day IV, qod × 3
  TGD (T-C): 21 days
  TGI (T/C): 22.7%
  time to recover the weight loss: ≤ 13 days
  toxic deaths: no toxic deaths
[4]; 20 mg/kg/day IV, qod×3, on Day 25
  maximum weight loss: 26.4%
[1]; 12 mg/kg/day IV
  Increase in Life Span (ILS): 1.4x
  Tumor Growth Delay T-C: 11 days
  Tumor Growth Inhibition T/C (tumor volume): 49.8%
[13]; 16 mg/kg/day IV
  Increase in Life Span (ILS): >2.3x
  Tumor Growth Delay T-C: >47 days
  Tumor Growth Inhibition T/C (tumor volume): 4.8%
[13]; 20 mg/kg/day IV
  Increase in Life Span (ILS): >2.3x
  Tumor Growth Delay T-C: >47 days
  Tumor Growth Inhibition T/C (tumor volume): 4.0%
[14]; 16 mg/kg/day IV
  Increase in Life Span (ILS): 1.4x
  Tumor Growth Delay T-C: 11 days
  Tumor Growth Inhibition T/C (tumor volume): 35.2%
[14]; 20 mg/kg/day IV
  Increase in Life Span (ILS): 1.6x
  Tumor Growth Delay T-C: 17 days
  Tumor Growth Inhibition T/C (tumor volume): 20.7%

## CCc1c2c(nc3ccc(OC(=O)N4CCC(N5CCCCC5)CC4)cc13)-c1cc3c(c(=O)n1C2)COC(=O)[C@]3(O)CC [Irinotecan, reference compound]
[3]; [26]
  ILS: > 2.0 fold
  TGD (T-C): 38 days
  TGI (T/C): 10%
  body weight loss: 20%
[15]
  Increase in Life Span (ILS): 1.7x
  Tumor Growth Delay T-C: 28 days
[5]; 60 mg/kg/day IP, q4d×3
  ILS: 1.7 fold
  TGD (T-C): 14 days
[5]; [26]
  ILS: 2.5 fold
  TGD (T-C): 29 days
  TGI (T/C): 19.0%
[16]; q4d×3
  Tumor Growth Delay T-C: 5 days
[16]; q4d × 3, listed as CPT-11
  Increase in Life Span (ILS): 1.1x
[17]
  ILS: > 1.5 fold
  TGD (T-C): > 18 days
  body weight loss: < 10%
[17]; Day 53
  animals remaining at study termination: 8 of 9
[6]; 60 mg/kg/day IV, q4d×3
  ILS: 1.5 fold
  TGD (T-C): 14 days
  tolerability: tolerated well
[7]; 60 mg/kg/day IV, q4d×3
  TGD: no TGD was observed
  TGI (T/C): 52.7%
  tolerability: well tolerated
[18]
  Increase in Life Span (ILS): 1.4x
  Tumor Growth Delay T-C: 17 days

Reference: US20120004235A1, “METHODS TO TREAT CANCER” (Rutgers, The State University of New Jersey, priority 2009, published 2012)
